Test: Plasma pharmacokinetics on fraction day
Format: in vivo, human
Details: plasma, patients given peposertib

Oc1ccc(C(O)c2cc(-c3ncnc4cc(N5CCOCC5)ccc34)c(F)cc2Cl)nn1 (centres unmarked) [M467]
Average exposure proportion compared with peposertib, AUC: < 25%
Average exposure proportion compared with peposertib, Cmax: < 16%
